According to US7731985B2, “4-aminopyrimidines and their use for the antimicrobial treatment of surfaces” (Ciba Specialty Chemicals Corporation, priority 2002, dated 2010):

Columns and labels:
Assay in all cases: MIC in microtitre plates (Example 10)
Format in all cases: cell-based
Parameters in all cases: unit not given here
Settings in all cases: microtitre plate, 48 hours at 37° C., ≦20% growth
[1] = tested on: Candida albicans ATCC 10231 (=CA)
Procedure, shortened: (§1)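 DMSO-dissolved compounds tested in 1:2 serial dilution against overnight CASO broth cultures, inoculum adjusted to 1-5×10^6 CFU/ml then diluted 1:100 in CASO. Incubated 48 hours at 37° C; turbidity read at 620 nm. MIC = lowest concentration giving ≦20% growth versus control; duplicates.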

[2] = tested on: Pseudomonas aeruginosa CIP A-22 (=PA)
Procedure, shortened: as §1

[3] = tested on: Escherichia coli NCTC 8196 (=EC)
Procedure, shortened: as §1

[4] = tested on: Staphylococcus aureus ATCC 9144 (=SA)
Procedure, shortened: as §1

Structure (SMILES) | MIC CA [1] | MIC PA [2] | MIC EC [3] | MIC SA [4]
CCCCCCCCNc1cc(C)nc(-c2cccc(OC)c2)n1 [compound 62] | 120 | >120 | 120 | 60
CCCCCCCCCCCCNc1cc(C)nc(-c2ccc(C(C)(C)C)cc2)n1 [compound 85] | 7.5 | <120 | 7.5 | 15
CCCCCCCCNc1cc(C)nc(C2CC2)n1 [compound 67] | 7.5 | >120 | 30 | 7.5
NCCCCCCCCCCCCNc1cc(-c2cccc3ccccc23)ncn1 [compound 29] | 30 | >120 | 30 | 15
CCCCCCCCNc1cc(C)nc(C(C)C)n1 [compound 68] | 15 | >120 | 30 | 15
CCCCCCCCNc1cc(C)nc(-c2ccc(C)c(F)c2)n1 [compound 70] | 7.5 | >120 | 15 | <3.75
NCCCOCCCCOCCCNc1nc(-c2ccccc2)nc(-c2ccc(F)cc2)c1-c1ccccc1 [compound 9] | 30 | >120 | 15 | 15
CCCCCCCCNc1cc(C)nc(-c2ccc(C(C)(C)C)cc2)n1 [compound 58] | 60 | >120 | 120 | 15
CCCCCCCCCCCNc1cc(C)nc(-c2cccnc2)n1 [compound 35] | 30 | 120 | 30 | 15
Cc1cc(NCc2ccco2)nc(-c2cccnc2)n1 [compound 51] | >120 | >120 | >120 | 30
Cc1cc(Nc2ccccn2)nc(-c2cccnc2)n1 [compound 47] | >120 | >120 | >120 | 120
CCCCCCNc1cc(C)nc(C2CC2)n1 [compound 116] | 15 | >120 | 60 | 7.5
CCCCCCNc1cc(C)nc(-c2cccnc2)n1 [compound 33] | 60 | >120 | >120 | 30
CCCCCCCCCCCCCCCCNc1cc(C)nc(-c2cccnc2)n1 [compound 39] | 15 | >120 | 30 | <3.75
CCCCCCCCCCCCCCNc1cc(C)nc(C2CC2)n1 [compound 80] | 7.5 | >120 | 7.5 | <3.75
Cc1ccc(-c2nc(C)cc(NC(C)CC(C)C)n2)cc1 (stereo not shown) [compound 144] | 120 | >120 | >120 | 60
Cc1ccc(-c2nc(-c3ccccc3)nc(NCCCN(C)CCCN)c2-c2ccccc2)cc1 [compound 12] | 7.5 | 7.5 | 3.75 | 7.5
CCCCN(C)c1cc(C)nc(C2CC2)n1 [compound 127] | 60 | >120 | >120 | 60
CCCCCCNc1cc(C)nc(-c2ccc(C)cc2)n1 [compound 115] | 120 | >120 | >120 | 7.5
Cc1ccc(-c2nc(-c3ccccc3)nc(NCCOCCOCCN)c2-c2ccccc2)cc1 [compound 13] | 30 | >120 | 15 | 15

Structure (SMILES) | MIC CA [1] | MIC PA [2] | MIC EC [3] | MIC SA [4]
CCCCCCNc1cc(C)nc(-c2ccc(-c3ccccc3)cc2)n1 [compound 108] | >120 | >120 | >120 | 30
CCCCCCCCNc1cc(C)nc(-c2cccc(C)c2)n1 [compound 60] | 120 | >120 | >120 | 120
CCCCN(CCCC)c1cc(C)nc(-c2csc(C)n2)n1 [compound 122] | 120 | >120 | >120 | 30
CCCCCCCCCCCCCCNc1cc(C)nc(-c2ccc(C(C)(C)C)cc2)n1 [compound 72] | 7.5 | >120 | 15 | 7.5
CCCCCCNc1cc(C)nc(C(C)C)n1 [compound 117] | 30 | >120 | 120 | 15
COc1ccccc1-c1nc(-c2ccccc2)nc(N2CCC(CCCC3CCNCC3)CC2)c1-c1ccccc1 [compound 28] | >120 | >120 | >120 | <3.75
CCCCC(CC)CNc1cc(C)nc(-c2ccncc2)n1 (stereo not shown) [compound 134] | 120 | >120 | >120 | 7.5
CCCCCCCCCCCCNc1cc(C)nc(-c2ccc(C)cc2)n1 [compound 91] | 15 | >120 | 30 | 30
CCCNc1cc(C)nc(-c2cccnc2)n1 [compound 31] | 120 | >120 | >120 | 60
NCCCCCCCCNc1nc(-c2ccccc2)nc(-c2cccc(C(F)(F)F)c2)c1-c1ccccc1 [compound 20] | 15 | >120 | 30 | 15
CCCCC(CC)CNc1cc(C)nc(C2CC2)n1 (stereo not shown) [compound 137] | 15 | >120 | 30 | 15
CCCCCCNc1cc(C)nc(-c2ccc(C(C)(C)C)cc2)n1 [compound 109] | 30 | >120 | 60 | 15
CCCCC(CC)CNc1cc(C)nc(-c2ccc(C)c(F)c2)n1 (stereo not shown) [compound 140] | 120 | >120 | >120 | 15
Cc1cc(NC(C)CC(C)C)nc(C2CC2)n1 (stereo not shown) [compound 145] | 120 | >120 | >120 | >120
CCCC(C)Nc1cc(C)nc(-c2cccnc2)n1 (stereo not shown) [compound 40] | 120 | >120 | >120 | 60
CCCCCCCCCCCCNc1cc(C)nc(-c2ccccc2)n1 [compound 87] | 7.5 | <120 | 15 | 15
CCCCCCCCCCNc1cc(C)nc(-c2cccs2)n1 [compound 98] | 15 | >120 | 15 | 15
CCCCN(C)c1cc(C)nc(-c2ccc(C)c(F)c2)n1 [compound 130] | >120 | >120 | >120 | 120
CCCCCCCCCCCCCCNc1cc(C)nc(-c2ccncc2)n1 [compound 77] | 15 | >120 | 60 | 7.5
CCCCCCNc1cc(C)nc(-c2cccs2)n1 [compound 110] | 120 | >120 | >120 | 60
